Patent publication US10428063B2 (Bayer Pharma Aktiengesellschaft, priority 2015, dated 2019)

Target: catalytic domain of human Bub1 (amino acids 704-1085) (Homo sapiens (Human), UniProt O43683)
Assay: Bub1 kinase assay (TR-FRET)
Assay type: biochemical
Settings: 10 μM ATP, 1 μM peptide substrate, recombinant catalytic domain of human Bub1, read-out: Bub1 kinase assay median IC50
From the text: Bub1-inhibitory activities of compounds described in the present invention were quantified using a time-resolved fluorescence energy transfer (TR-FRET) kinase assay which measures phosphorylation of the synthetic peptide Biotin-Ahx-VLLPKKSFAEPG (C-terminus in amide form), purchased from e.g. Biosyntan (Berlin, Germany) by the (recombinant) catalytic domain of human Bub1 (amino acids 704-1085), expressed in Hi5 insect cells with an N-terminal His6-tag and purified by affinity- (Ni-NTA) and size exclusion chromatography.
In a typical assay 11 different concentrations of each compound (0.1 nM, 0.33 nM, 1.1 nM, 3.8 nM, 13 nM, 44 nM, 0.15 μM, 0.51 μM, 1.7 μM, 5.9 μM and 20 μM) were tested in duplicate within the same microtiter plate. To this end, 100-fold concentrated compound solutions (in DMSO) were previously prepared by serial dilution (1:3.4) of 2 mM stocks in a clear low volume 384-well source microtiter plate (Greiner Bio-One, Frickenhausen, Germany), from which 50 nl of compounds were transferred into a black low volume test microtiter plate from the same supplier. Subsequently, 2 μl of Bub1 (the final concentration of Bub1 was adjusted depending on the activity of the enzyme lot in order to be within the linear dynamic range of the assay: typically ˜200 ng/ml were used) in aqueous assay buffer [50 mM Tris/HCl pH 7.5, 10 mM magnesium chloride (MgCl2), 200 mM potassium chloride (KCl), 1.0 mM dithiothreitol (DTT), 0.1 mM sodium ortho-vanadate, 1% (v/v) glycerol, 0.01% (w/v) bovine serum albumine (BSA), 0.005% (v/v) Trition X-100 (Sigma), 1× Complete EDTA-free protease inhibitor mixture (Roche)] were added to the compounds in the test plate and the mixture was incubated for 15 min at 22° C. to allow pre-equilibration of the putative enzyme-inhibitor complexes before the start of the kinase reaction, which was initiated by the addition of 3 μl 1.67-fold concentrated solution (in assay buffer) of adenosine-tri-phosphate (ATP, 10 μM final concentration) and peptide substrate (1 μM final concentration). The resulting mixture (5 μl final volume) was incubated at 22° C. during 60 min., and the reaction was stopped by the addition of 5 μl of an aqueous EDTA-solution (50 mM EDTA, in 100 mM HEPES pH 7.5 and 0.2% (w/v) bovine serum albumin) which also contained the TR-FRET detection reagents (0.2 μM streptavidin-XL665 [Cisbio Bioassays, Codolet, France] and 1 nM anti-phosho-Serine antibody [Merck Millipore, cat. #35-002] and 0.4 nM LANCE EU-W1024 labeled anti-mouse IgG antibody [Perkin-Elmer, product no. AD0077, alternatively a Terbium-cryptate-labeled anti-mouse IgG antibody from Cisbio Bioassays can be used]). The stopped reaction mixture was further incubated 1 h at 22° C. in order to allow the formation of complexes between peptides and detection reagents. Subsequently, the amount of product was evaluated by measurement of the resonance energy transfer from the Eu-chelate-antibody complex recognizing the Phosphoserine residue to the streptavidin-XL665 bound to the biotin moiety of the peptide. To this end, the fluorescence emissions at 620 nm and 665 nm after excitation at 330-350 nm were measured in a TR-FRET plate reader, e.g. a Rubystar or Pherastar (both from BMG Labtechnologies, Offenburg, Germany) or a Viewlux (Perkin-Elmer) and the ratio of the emissions (665 nm/622 nm) was taken as indicator for the amount of phosphorylated substrate. The data were normalised using two sets of control wells for high- (=enzyme reaction without inhibitor=0%=Minimum inhibition) and low- (=all assay components without enzyme=100%=Maximum inhibition) Bub1 activity. IC50 values were calculated by fitting the normalized inhibition data to a 4-parameter logistic equation (Minimum, Maximum, IC50, Hill; Y=Max+(Min−Max)/(1+(X/IC50)Hill)).

Sequence of catalytic domain of human Bub1 (amino acids 704-1085) (O43683 704-1085): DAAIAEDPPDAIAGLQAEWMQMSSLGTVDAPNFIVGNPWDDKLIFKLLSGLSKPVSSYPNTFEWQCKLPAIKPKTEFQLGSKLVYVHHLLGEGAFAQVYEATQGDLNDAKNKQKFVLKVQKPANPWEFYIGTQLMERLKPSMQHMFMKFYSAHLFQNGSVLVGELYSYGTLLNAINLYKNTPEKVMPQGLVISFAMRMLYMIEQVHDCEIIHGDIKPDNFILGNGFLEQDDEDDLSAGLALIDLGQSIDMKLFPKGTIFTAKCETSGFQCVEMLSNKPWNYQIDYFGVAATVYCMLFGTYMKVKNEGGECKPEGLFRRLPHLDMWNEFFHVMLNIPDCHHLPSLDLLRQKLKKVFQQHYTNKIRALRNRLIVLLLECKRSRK

| Compound | IC50 |
| --- | --- |
| CN1CCc2[nH]c(-c3ccnc(NC(=O)[C@H]4C[C@H]4F)c3)c(Nc3ccccc3)c2C1=O (relative stereo) [Example 25, rel-(1R,2R)-2-fluoro-N-{4-[5-methyl-4-oxo-3-(phenylamino)-4,5,6,7-tetrahydro-1H-pyrrolo[3,2-c]pyridin-2-yl]pyridin-2-yl}cyclopropanecarboxamide] | 17.1 nM |
| CC1(C)Cc2[nH]c(-c3ccncc3)c(Nc3ccccc3)c2C(=O)N1 [Example 1, 6,6-dimethyl-3-(phenylamino)-2-(pyridin-4-yl)-1,5,6,7-tetrahydro-4H-pyrrolo[3,2-c]pyridin-4-one] | 11.6 nM |
| O=C1NCCc2[nH]c(-c3ccncc3)c(Nc3ccccc3)c21 [Example 2, 3-(phenylamino)-2-(pyridin-4-yl)-1,5,6,7-tetrahydro-4H-pyrrolo[3,2-c]pyridin-4-one] | 7.89 nM |
| Cc1cnccc1-c1[nH]c2c(c1Nc1ccccc1)C(=O)NCC2 [Example 3, 2-(3-methylpyridin-4-yl)-3-(phenylamino)-1,5,6,7-tetrahydro-4H-pyrrolo[3,2-c]pyridin-4-one] | 244 nM |
| CCn1c2c(c(Nc3ccccc3)c1-c1ccncc1)C(=O)NC(C)(C)C2 [Example 4, 1-ethyl-6,6-dimethyl-3-(phenylamino)-2-(pyridin-4-yl)-1,5,6,7-tetrahydro-4H-pyrrolo[3,2-c]pyridin-4-one] | 14.6 nM |
| CCn1c2c(c(Nc3ccccc3)c1-c1ccncc1)C(=O)NCC2 [Example 5, 1-ethyl-3-(phenylamino)-2-(pyridin-4-yl)-1,5,6,7-tetrahydro-4H-pyrrolo[3,2-c]pyridin-4-one] | 35.1 nM |
| CC(C)(C)OC(=O)N1CCc2[nH]c(-c3ccncc3)c(Nc3ccccc3)c2C1=O [Example 6, tert-butyl 4-oxo-3-(phenylamino)-2-(pyridin-4-yl)-1,4,6,7-tetrahydro-5H-pyrrolo[3,2-c]pyridine-5-carboxylate] | 10.9 nM |
| O=C1NCCc2[nH]c(-c3ccncc3)c(Nc3ccc(F)cc3)c21 [Example 7, 3-[(4-fluorophenyl)amino]-2-(pyridin-4-yl)-1,5,6,7-tetrahydro-4H-pyrrolo[3,2-c]pyridin-4-one] | 19.8 nM |
| Nc1cc(-c2[nH]c3c(c2Nc2ccccc2)C(=O)NCC3)ccn1 [Example 8, 2-(2-aminopyridin-4-yl)-3-(phenylamino)-1,5,6,7-tetrahydro-4H-pyrrolo[3,2-c]pyridin-4-one] | 138 nM |
| COCCn1c2c(c(Nc3ccccc3)c1-c1ccncc1)C(=O)NCC2 [Example 9, 1-(2-methoxyethyl)-3-(phenylamino)-2-(pyridin-4-yl)-1,5,6,7-tetrahydro-4H-pyrrolo[3,2-c]pyridin-4-one] | 354 nM |
| CC(C)C(=O)Nc1cc(-c2[nH]c3c(c2Nc2ccccc2)C(=O)N(C(=O)C(C)C)CC3)ccn1 [Example 10, 2-methyl-N-{4-[5-(2-methylpropanoyl)-4-oxo-3-(phenylamino)-4,5,6,7-tetrahydro-1H-pyrrolo[3,2-c]pyridin-2-yl]pyridin-2-yl}propanamide] | 319 nM |
| CCn1c2c(c(Nc3ccc(F)cc3)c1-c1ccncc1)C(=O)NCC2 [Example 11, 1-ethyl-3-[(4-fluorophenyl)amino]-2-(pyridin-4-yl)-1,5,6,7-tetrahydro-4H-pyrrolo[3,2-c]pyridin-4-one] | 64.5 nM |
| Cc1cc(-c2[nH]c3c(c2Nc2ccccc2)C(=O)NCC3)ccn1 [Example 12, 2-(2-methylpyridin-4-yl)-3-(phenylamino)-1,5,6,7-tetrahydro-4H-pyrrolo[3,2-c]pyridin-4-one] | 15.4 nM |
| CCn1c2c(c(Nc3ccccc3)c1-c1ccnc(C)c1)C(=O)NCC2 [Example 13, 1-ethyl-2-(2-methylpyridin-4-yl)-3-(phenylamino)-1,5,6,7-tetrahydro-4H-pyrrolo[3,2-c]pyridin-4-one] | 972 nM |
| CC(=O)Nc1cc(-c2[nH]c3c(c2Nc2ccccc2)C(=O)NCC3)ccn1 [Example 14] | 18.3 nM |
| CCn1c2c(c(Nc3ccccc3)c1-c1ccnc(NC(C)=O)c1)C(=O)NCC2 [Example 15, N-{4-[1-ethyl-4-oxo-3-(phenylamino)-4,5,6,7-tetrahydro-1H-pyrrolo[3,2-c]pyridin-2-yl]pyridin-2-yl}acetamide] | 79 nM |
| O=c1[nH]ccc2[nH]c(-c3ccncc3F)c(Nc3ccccc3)c12 [Example 16, 2-(3-fluoropyridin-4-yl)-3-(phenylamino)-1,5-dihydro-4H-pyrrolo[3,2-c]pyridin-4-one] | 19.1 nM |
| CN1CCc2[nH]c(-c3ccncc3F)c(Nc3ccccc3)c2C1=O [Example 17, 2-(3-fluoropyridin-4-yl)-5-methyl-3-(phenylamino)-1,5,6,7-tetrahydro-4H-pyrrolo[3,2-c]pyridin-4-one] | 8.7 nM |
| O=C1NCCc2[nH]c(-c3ccncc3F)c(Nc3ccccc3)c21 [Example 18, 2-(3-fluoropyridin-4-yl)-3-(phenylamino)-1,5,6,7-tetrahydro-4H-pyrrolo[3,2-c]pyridin-4-one] | 11.5 nM |
| CCNC(=O)Nc1cc(-c2[nH]c3c(c2Nc2ccccc2)C(=O)NCC3)ccn1 [Example 19, 1-ethyl-3-{4-[4-oxo-3-(phenylamino)-4,5,6,7-tetrahydro-1H-pyrrolo[3,2-c]pyridin-2-yl]pyridin-2-yl}urea] | 19.5 nM |
| CN1CCc2[nH]c(-c3ccncc3)c(Nc3ccccc3)c2C1=O [Example 20, 5-methyl-3-(phenylamino)-2-(pyridin-4-yl)-1,5,6,7-tetrahydro-4H-pyrrolo[3,2-c]pyridin-4-one] | 13.4 nM |
| CN1CCc2[nH]c(-c3ccnc(N)c3)c(Nc3ccccc3)c2C1=O [Example 21, 2-(2-aminopyridin-4-yl)-5-methyl-3-(phenylamino)-1,5,6,7-tetrahydro-4H-pyrrolo[3,2-c]pyridin-4-one] | 170 nM |
| COc1cnccc1-c1[nH]c2c(c1Nc1ccccc1)C(=O)N(C)CC2 [Example 22, 2-(3-methoxypyridin-4-yl)-5-methyl-3-(phenylamino)-1,5,6,7-tetrahydro-4H-pyrrolo[3,2-c]pyridin-4-one] | 26.9 nM |
| CC(=O)Nc1cc(-c2[nH]c3c(c2Nc2ccccc2)C(=O)N(C)CC3)ccn1 [Example 23] | 23.2 nM |
| CN1CCc2[nH]c(-c3ccnc(NC(=O)C4CC4)c3)c(Nc3ccccc3)c2C1=O [Example 24] | 15.3 nM |
| CN1CCc2[nH]c(-c3ccncc3OCCO)c(Nc3ccccc3)c2C1=O [Example 26, 2-[3-(2-hydroxyethoxy)pyridin-4-yl]-5-methyl-3-(phenylamino)-1,5,6,7-tetrahydro-4H-pyrrolo[3,2-c]pyridin-4-one] | 47.6 nM |
| CN1CCc2[nH]c(-c3ccncc3OCC3CC3)c(Nc3ccccc3)c2C1=O [Example 27, 2-[3-(cyclopropylmethoxy)pyridin-4-yl]-5-methyl-3-(phenylamino)-1,5,6,7-tetrahydro-4H-pyrrolo[3,2-c]pyridin-4-one] | 21.7 nM |
| CCCOc1cnccc1-c1[nH]c2c(c1Nc1ccccc1)C(=O)N(C)CC2 [Example 28, 5-methyl-3-(phenylamino)-2-(3-propoxypyridin-4-yl)-1,5,6,7-tetrahydro-4H-pyrrolo[3,2-c]pyridin-4-one] | 51.6 nM |
| CN1CCc2[nH]c(-c3ccncc3OCC(F)F)c(Nc3ccccc3)c2C1=O [Example 29, 2-[3-(2,2-difluoroethoxy)pyridin-4-yl]-5-methyl-3-(phenylamino)-1,5,6,7-tetrahydro-4H-pyrrolo[3,2-c]pyridin-4-one] | 70.8 nM |
